Test results published in patent US8575376B2, “Steroide anionic compounds, method of their production, usage and pharmaceutical preparation involving them” (Ustav Organicke Chemie A Biochemie Akademie Ved Ceske …, priority 2009, dated 2013).
Entries after “also recorded” stand apart in the source; their conditions may differ.

Tests used:
[1] = system: Wistar rats; test: Spontaneous EEG and epileptic afterdischarges in awake rats; type: in vivo, rat
Excerpt: To assess the influence of the compound from example 9 on spontaneous EEG, evoked potentials and epileptic afterdischarges, recording electrodes were implanted into the epidural spaces of the adult Wistar rats. Rats were anaesthetized with isoflurane (1.5-2%) and 4 silver wire bare electrodes were inserted epidurally over sensorimotor cortex. Reference and ground electrodes were placed above cerebellum. The whole montage was fixed to the skull with dental acrylic.
After recovery period (1 week), animals were placed into the plastic boxes and connected to the Video EEG monitoring (VisionBrain/). After 1 hour of background recording the compound from example 9 was administered at the dose of 0.01 mg/kg and EEG was recorded for next 24 hours. Analysis of EEG was performed in a custom-based MATLAB script. Power of the EEG signal was calculated from FFT in frequency band 1.5-45 Hz. Length and duration of spike and wave afterdischarges (SPW) was measured from EEG to assess effect of compound from example 9 (0.01 mg/kg and 10 mg/kg) on epileptiform activity.

[2] = system: rats; test: Ischemic-hypoxic brain damage (bilateral carotid occlusion + 10% O2): AAPA, rotarod, beam walking; type: in vivo, rat
Method: The effect of compound from example 9 on cognitive coordination and motor activity was examined in stroke model of ischemic brain injury. Ischemic-hypoxic damage was induced by bilateral occlusion of common carotid arteries and subsequent confinement in box with 10% O2 (for 30 min). The animals were injected i.p. by compound from example 9 dissolved in β-cyclodextrine (1 mg/kg) immediately after their removal from box. Ischemic group was injected only by β-cyclodextrine in the same time and volume. Surgery was conducted under anesthesia (xylazine 6 mg/kg, thiopental 50 mg/kg).
It is known that ischemia-hypoxia causes neuronal necrosis in specifically vulnerable areas of brain. The two-vessel occlusion/hypoxic model gives rise to stroke changes, for example in cells of the hippocampus, caudatoputamen and neocortex. As such structures are intimately involved in memory, cognitive and motor processes, ischemia/hypoxia leads to impairment in these functions. Used animal model of stroke damage dealing with ischemia/hypoxia has enabled the identification of deleterious phenomena that may be corrected or neutralized by drugs.
The effect of ischemic was evaluated a week after surgical procedures in AAPA task, beam walking and rotarod. Ischemia led to deterioration of motor activity (rotarod and beam walking) and deficit in cognitive coordination.

[3] = system: Long-Evans rats; test: Learned helplessness model of affective disorders; type: in vivo, rat; conditions: 1 mg/kg i.p. after inescapable shocks, tested 24 h later, p<0.01 vs LH group
Method: Male Long-Evans rats weighing 350-450 g were used. Animals were housed in groups in an air-conditioned room with 12 h/12 h light/dark cycle with the lights on at 7 a.m. Water and food were available ad libitum. Animals were randomly assigned to 3 groups—control group (received no shocks), learned helplessness group (received shocks) and experimental group (received shocks and injection of compound from example 9). An experimental set-up was composed of two chambers separated by a sliding door. The transparent shock chamber (48×20×20 cm) with one entrance led to the dark chamber (25×15×15 cm) made of black plexiglass. The floor of the shock chamber consisted of metal rods. Shocks were delivered through the grid floor. A shock generator (Data acquisition MF624 multifunction I/O board for PCI, Humusoft Ltd., Czech Republic) was connected to and controlled by a computer. On the pre-treatment day rats were individually placed into the apparatus for 10-minute habituation period. The sliding door separating two chambers was removed allowing free movements between the compartments. Immediately after the habituation rats were confined to the shock chamber for 1 hour. Inescapable shocks (72 V) of 10 s duration were delivered at 50 s intervals. Afterwards animals were injected i.p. with compound from example 9 in dose of 1 mg/kg. […] The number of escapes was recorded. […]

[4] = Neuropathic pain model; type: in vivo; conditions: no data shown
[5] = system: Long-Evans male rats; test: Acute toxicity in rat; type: in vivo
Method: Toxicity of compound from example 9 was tested on 2-month-old Long-Evans male rats. Animals were randomly assigned to 4 groups per 7 animals each. The first group was injected i.p. with saline, the second group received i.p. cyclodextrine, the third group obtained received the compound from example 9 at a dose 1 mg/kg (dissolved in β-cyclodextrine) and the last group compound from example 9 at a dose 100 mg/kg (dissolved in β-cyclodextrine). Animals were monitored for the period of 5 days. At the end of the experiment macroscopic dissection was carried out and organs were weighted (brain, heart, liver, spleen and kidneys). Animals' weight, food and water consumption was monitored daily. At the same time the behavior and locomotor activity was observed and animals were inspected for detection of effusions, constipation, etc.

[6] = system: mice (ICR); test: Depression-like behavior induced by repeated social defeat, open field; type: in vivo, mouse; conditions: 1 and 10 mg/kg orally, 30 min prior
Method: Naive adult male mice (albino out-bred strain ICR, VELAZ s.r.o., Prague, Czech Republic, 30-37 g) were used in this study. Food and water were available ad libitum. Mice were housed either individually without any handling in self-cleaning cages with a grid floor (8×6×13 cm) or in groups of 17-20 in standard plastic cages (38×22×14 cm) with the floors covered with wooden shavings. After 3 weeks, each individually housed mouse was allowed 30 min adaptation in a Plexiglas neutral observation cage (20×20×30 cm) with clean wooden shavings before it was coupled with a group-housed male partner for 4 min/day. […] Animals were housed, and behavioural testing was performed in a different room during the light phase of the constant light-dark cycle with lights on at 6:00 and off at 18:00 h. Temperature was maintained at 21° C., and relative humidity was 50%. The mice were not handled except on the experimental days.
Group-housed males were used for the experiment. […] Over a 3-min testing period, the distance traveled, as a marker of locomotor/exploratory behaviour, in the open field was measured. […] Thirty minutes following the drug administration, the animal was placed into the open field arena and distance traveled was measured, as described before. […]

[7] = 1 mg/kg i.p. immediately after hypoxia, tested a week later

CC(=O)[C@H]1CC[C@H]2[C@@H]3CC[C@@H]4C[C@H](OC(=O)[C@@H](N)CCC(=O)O)CC[C@]4(C)[C@H]3CC[C@]12C [Example 9, 20-Oxo-5β-pregnan-3α-yl L-glutamyl 1-ester]
spontaneous EEG power ([1]; 60 min and 180 min after application): changes the EEG power at the shorter interval | duration and number of spike-wave afterdischarges ([1]; higher dose (10 mg/kg)): tended to increase these parameter | duration and number of spike-wave afterdischarges ([1]; low dose (0.01 mg/kg)): tended to slightly decrease both duration and number of spike-wave episodes | total path in AAPA after ischemia/hypoxia ([2]; 1 mg/kg i.p.): None of the experimental condition affected locomotion in AAPA | cognitive deficit in AAPA (entrances) after ischemia/hypoxia [2, 7]: improves cognitive deficit induced by ischemic/hypoxic procedures in AAPA task | motor changes in rotarod and beam walking after ischemia/hypoxia [2, 7]: has no effect on disturbance of motor changes in rotarod and beam walking test | number of escapes (learned helplessness) [3]: significantly increased number of escapes | action on the neuropathic pain model [4]: Beneficial action | short-term body weight gain ([5]; 1 mg/kg i.p. (lower dose), 5 days): failed to affect short-term body weight gain | time to spontaneous awakening ([5]; 100 mg/kg i.p.): 4 h | short-term body weight gain ([5]; 100 mg/kg i.p. (higher dose), 5 days): tended to decrease it slightly | locomotor activity on the day of application ([5]; 100 mg/kg i.p., 15 minutes after injection): decreased locomotor activity | anesthetic effect ([5]; 100 mg/kg i.p., 45 minutes after injection): gradually changed into anesthesia of animals | weight of body organs (brain, heart, liver, spleen, kidneys) ([5]; 1 and 100 mg/kg i.p., autopsy on day 5): no differences between controls and animals treated with the compound from example 9 | signs of acute toxicity ([5]; rat, i.p., doses up to 100 mg/kg, 5 days): does not exhibit any signs of acute toxicity; also recorded: absense of any signs of acute toxicity | hypolocomotion in open field after repeated social defeat [6]: reduced a hypolocomotion in an open field induced by agonistic interactions in mice
